Measurements taken from paper PMC10610379, “Epidrugs as Promising Tools to Eliminate Plasmodium falciparum Artemisinin-Resistant and Quiescent Parasites” (Pharmaceutics, 2023).
“And” between values parts separate entries of the source, which are not always exact repeats. Equal entries are not always repeated. Where two headings read alike, the source gives them in different places.

Experiments:
[1] = Cytotoxicity evaluation by MTT assay; format: cell-based; details: monkey, Vero cells, * mean of 2 experiments
Experimental: The cytotoxicity of all newly synthesized compounds was evaluated on the Vero cell lines (isolated from monkey kidney cells, gift from the Faculty of Pharmacy, Toulouse, France) by MTT assay according to Mosmann with slight modifications. Briefly, cells in MEM medium supplemented with 10% fetal calf serum, 2 mM L-glutamine, antibiotics (100 U/mL penicillin and 100 µg/mL streptomycin), and NEAA 1X, were seeded in 96-well plates. After a 24-h incubation at 37 °C and 5% CO2 in a humidified atmosphere, compounds were added with concentrations ranging from 5 nM to 50 μM in duplicate. […] The security index was calculated as the ratio of cytotoxicity/antiplasmodial activity.

[2] = test system: Plasmodium falciparum F32-TEM (artemisinin-sensitive twin line); assay: Standard chemosensitivity assay (SYBR Green I), F32-TEM; format: cell-based; details: Plasmodium falciparum, read-out: Antiplasmodial Activity: IC50, F32-TEM
Experimental: (§1) They differ by eight mutations in seven genes (PF3D7_0110400, PF3D7_1343700, PF3D7_0213400, PF3D7_1115700, PF3D7_1302100, PF3D7_1459600, PF3D7_1464500) among them the M476I mutation on the kelch13 gene. F32-ART and F32-TEM strains have RSA^0–3 h values up to 12% and less than 0.1%, respectively. […] Both strains were cultured, in the same conditions, according to the Trager and Jensen protocol with modifications. Briefly, parasites were cultivated in RPMI-1640 medium (Biowest) at 2% hematocrit in human red blood cells and 5% human serum (EFS, French Blood Bank) under 5% CO2 in a humid atmosphere at 37 °C.
(§2) The antimalarial activities of the compounds were evaluated on both strains. […] Antimalarial activities were determined with the SYBR Green I method. Each drug concentration was tested in triplicate. The parasites were incubated with the drugs for 48 h. Plates were read on a BioTek FLX800 Microplate Fluorescence Reader (Bio-Tek instruments, Winooski, VT, USA) (λexcitation = 485 nm, λemission = 528 nm). Control parasite culture (i.e., RPMI with 0.5% DMSO) was referred to as 100% growth. IC50 and IC90 values were determined using GraphPad Prism version 7.05 (GraphPad Software, San Diego, CA, USA). Results were the mean of 3 independent experiments. When it is relevant, statistical significance between results obtained with both parasite strains was determined by a Mann–Whitney test using GraphPad Prism version 7.05.

[3] = test system: Plasmodium falciparum F32-ART (artemisinin-resistant strain); assay: Standard chemosensitivity assay (SYBR Green I), F32-ART; format: cell-based; details: for IC50: Plasmodium falciparum, read-out: Antiplasmodial Activity: IC50, F32-ART; for Selectivity Index CC50/IC50: ratio cytotoxicity (mammalian cell type of the CC50)/antiplasmodial activity on F32-ART
Experimental: as §1, §2

[4] = test system: H4K8ac; assay: Immunoblotting, histone mark abundance in F32-ART parasites; format: cell-based, Plasmodium falciparum; details: 700nM DHA alone, F32-ART ring stage; 3 replicates (Fig 3D)
Experimental: (§3) Abundance of methylated and acetylated histone was determined in parasite cultures in different conditions: “not-treated”, “DHA 24 h”, “DHA 6 h/DHA 24 h” and “DHA 6 h/DHA + compound to be tested 24 h”. At the end of the treatments, parasite cultures were washed in RPMI-1640 and then twice in PBS 1× before red blood cell lysis with 0.075% saponin (Sigma-Aldrich) in PBS. Parasite ghosts were washed 3 times in PBS before incubating the ghosts with E1A lysis buffer (50 mM Hepes pH 7.5; 250 mM NaCl; 5 mM EDTA; 0.1% Triton X-100, 1 mM DTT, 0.2 mM PMSF supplemented with complete Mini EDTA-free protease inhibitor cocktail (Roche®, Basel, Switzerland)) for 15 min. Ghosts were then sonicated for 3 × 15s ON/OFF cycles to shear parasite membranes. Debris were pelleted by centrifuging for 15 min at 13,800× g and 4 °C, and supernatants (containing parasitic proteins) were then collected. Protein concentrations were determined using BCA assay (Bio-Rad, Hercules, CA, USA) according to the manufacturer’s instructions. For each sample, 10 µg of proteins were mixed with 4× sample buffer (10 mL 50% Glycerol, 5 mL 0.5 M Tris HCl pH 6.8, 4 mL 20% SDS, 0.02% Bromophenol blue for a total solution volume of 20 mL) and 100 mM DTT and then separated on 15% SDS-PAGE gels in Laemmli running buffer. Gels were then wet-transferred O/N at 20 V onto PVDF membranes. Membranes were blocked in TBST for 1 h at room temperature. Bottom parts were then probed with histone antibodies while upper parts were probed with PFALDOLASE antibody (Abcam, ab38905, Cambridge, UK) at 1:20,000 dilution. The following primary antibodies were used: anti-H3K4me1 (Abcam, ab8895); anti-H3K4me2 (Abcam, ab35356); anti-H3K9me2 (Abcam, ab1220); anti-H3K9me3 (Millipore, 07-442, Burlington, MA, USA); anti-tetra-acetyl H4 (Millipore, 06-866); anti-H4K8Ac (Millipore, 07-328); anti-H4K20me3 (Abcam, ab9053); anti-H3K4me3 (Diagenode) and anti-H3K9Ac (Millipore, 07-352) at 1:10,000. The following secondary antibodies were used: anti-rabbit IgG-Peroxidase produced in goat (Sigma-Aldrich) or anti-mouse IgG-Peroxidase (Sigma-Aldrich); at 1:20,000 dilutions. Blots were developed using ECL Prime Western Blotting (GE Healthcare, Chicago, IL, USA) and read on a Chemidoc touch imaging software. Densitometry analysis was performed by using ImageLab software from Bio-Rad. To determine if variations in histone abundances were statistically significant, immunoblotting experiments were performed on 3 biological replicates and each run was performed twice.

[5] = test system: H3K4me2; assay: as above; format: cell-based, Plasmodium falciparum; details: 700nM DHA alone, F32-ART ring stage; 3 replicates (Fig 3D)
Experimental: as §3

[6] = test system: H4ac4; assay: as above; format: cell-based, Plasmodium falciparum; details: 700nM DHA alone, F32-ART ring stage; 3 replicates (Fig 3D)
Experimental: as §3

[7] = test system: H3K4me1; assay: as above; format: cell-based, Plasmodium falciparum; details: 700nM DHA alone, F32-ART ring stage; 3 replicates (Fig 3D)
Experimental: as §3

[8] = test system: H4K20me3; assay: as above; format: cell-based, Plasmodium falciparum; details: 700nM DHA alone, F32-ART ring stage; 3 replicates (Fig 3D)
Experimental: as §3

[9] = test system: H3K4me3; assay: as above; format: cell-based, Plasmodium falciparum; details: 700nM DHA alone, F32-ART ring stage; 3 replicates (Fig 3D)
Experimental: as §3

[10] = F32-TEM, 48 h incubation, SYBR Green I, mean ± SEM of 3 experiments (* mean of 2)
[11] = F32-ART, 48 h incubation, SYBR Green I, mean ± SEM of 3 experiments (* mean of 2)

Row | Compound | CC50 [1] | IC50 [2, 10] | IC50 [3, 11] | Selectivity Index CC50/IC50 [3] | also measured
1 | O=C1c2ccccc2O[C@H](c2ccccc2[N+](=O)[O-])[C@@]1(Cl)[N+](=O)[O-] (relative stereo) [Flv69] | > 50 µM | > 10 µM | > 10 µM |  | 
2 | C[C@]1([N+](=O)[O-])C(=O)c2ccccc2O[C@@H]1c1ccccc1[N+](=O)[O-] (relative stereo) [MLo1302] | 6.5 µM | 8 µM | 7 µM | 0.9 | 
3 | O=C1c2ccccc2O[C@H](c2ccccc2)[C@]1(F)[N+](=O)[O-] (relative stereo) [MLo1401] | 20 µM | > 10 µM | > 10 µM | <2 | 
4 | O=C1c2ccccc2O[C@H](c2ccccc2[N+](=O)[O-])[C@@]1(Br)[N+](=O)[O-] (relative stereo) [MLo1507] | 40 µM | > 10 µM | > 10 µM | <4 | 
5 | O=C1c2ccccc2O[C@H](c2ccccc2F)[C@@]1(Br)[N+](=O)[O-] (relative stereo) [MLo1509] | > 50 µM | > 10 µM | > 10 µM |  | 
6 | Cc1sc2c(c1C)C(c1ccc(Cl)cc1)=N[C@@H](CC(=O)OC(C)(C)C)c1nnc(C)n1-2 [(+)-JQ-1] | 0.2 µM | > 10 µM | > 10 µM | <0.02 | 
7 | Cc1noc(C)c1-c1ccc2c(c1)nc(CCc1ccc(O)cc1)n2CCN1CCOCC1 [AKE-040] | 24 µM | > 10 µM | > 10 µM | <2.4 | 
8 | CC1=NN(C2CCC(C(=O)O)CC2)C(=O)C1=Cc1ccc(-c2cc(C)c(C)cc2[N+](=O)[O-])o1 (centres unmarked) [C646] |  |  |  |  | IC50 ([2]; F32, 48 h): > 10 µM; IC50 ([3]; F32, 48 h): > 10 µM
9 | C[C@H]1[C@@H](O)O[C@@H]2O[C@@]3(C)CC[C@H]4[C@H](C)CC[C@@H]1[C@@]24OO3 [DHA, Dihydroartemisinin] |  |  |  |  | Fold change of H4K8ac abundance, DHA vs DMSO [4]: increased level and 2.03 and 2.07 and 2.15; Fold change of H3K4me2 abundance, DHA vs DMSO [5]: 1.36 and 1.49 and 1.08; Fold change of H4ac4 abundance, DHA vs DMSO [6]: increased level and 2.04 and 2.38 and 1.70; Fold change of H3K4me1 abundance, DHA vs DMSO [7]: 1.02 and 1.53 and 1.51; Fold change of H4K20me3 abundance, DHA vs DMSO [8]: increase and 1.51 and 1.65; Fold change of H3K4me3 abundance, DHA vs DMSO [9]: 0.71 and 0.98 and 0.76
10 | COc1ccc([N+](=O)[O-])c(C2Oc3ccccc3C(=O)C2(Cl)[N+](=O)[O-])c1 (centres unmarked) [Flv880] | > 50 µM | > 10 µM | > 10 µM |  | 
11 | O=C1c2ccccc2OC(c2ccccc2)C1[N+](=O)[O-] (centres unmarked) [MLo1406] | > 50 µM | > 10 µM | > 10 µM |  | 
12 | O=C1c2ccccc2OC(c2ccccc2)C1(Br)[N+](=O)[O-] (centres unmarked) [MLo1502] | > 50 µM | > 10 µM | > 10 µM |  | 
13 | COc1ccc([N+](=O)[O-])c(C2Oc3ccccc3C(=O)C2(Br)[N+](=O)[O-])c1 (centres unmarked) [MLo1508] | 36 µM | > 10 µM | > 10 µM | <3.6 | 
14 | COc1cccc(C2Oc3ccccc3C(=O)C2(Cl)[N+](=O)[O-])c1 (centres unmarked) [NFlav2018] | > 50 µM | > 10 µM | > 10 µM |  | 
15 | Cc1sc2c(c1C)C(c1ccc(Cl)cc1)=N[C@@H](CC(=O)NCC13CC4CC(CC(C4)C1)C3)c1nnc(C)n1-2 [SHH-878-1] | 3 µM | 10 µM | 10 µM | 0.3 | 
16 | C[C@@H]1CC[C@H]2[C@@H](C)C(=O)O[C@@H]3O[C@@]4(C)CC[C@@H]1[C@]32OO4 [artemisinin, Artemisinin] | > 100 µM | 0.013 ± 0.003 µM |  |  | 
